Data set [1] relates to luciferase expression in the liver. Briefly: In vivo luciferase mRNA expression rodent model (lipid nanoparticle formulations, liver luciferase). On the set-up: species or system mice. As to conditions: LNP with FLuc mRNA, PEG-DMA; 0.5 mg mRNA/kg, tail vein injection, liver 4 hours after administration. The procedure:
Lipid nanoparticles are prepared and tested according to the general procedures described in PCT Pub. Nos. WO 2015/199952 and WO 2017/004143, the full disclosures of which are incorporated herein by reference. Briefly, cationic lipid, DSPC, cholesterol and PEG-lipid are solubilized in ethanol at a molar ratio of about 50:10:38.5:1.5 or about 47.5:10:40.8:1.7. Lipid nanoparticles (LNP) are prepared at a total lipid to mRNA weight ratio of approximately 10:1 to 30:1. The mRNA is diluted to 0.2 mg/mL in 10 to 50 mM citrate or acetate buffer, pH 4. Syringe pumps are used to mix the ethanolic lipid solution with the mRNA aqueous solution at a ratio of about 1:5 to 1:3 (vol/vol) with total flow rates above 15 mL/min. The ethanol is then removed and the external buffer replaced with PBS by dialysis. Finally, the lipid nanoparticles are filtered through a 0.2 µm pore sterile filter. Lipid nanoparticle particle size is approximately 55-95 nm diameter, and in some instances approximately 70-90 nm diameter as determined by quasi-elastic light scattering using a Malvern Zetasizer Nano ZS (Malvern, UK).
Studies are performed in 6-8 week old female C57BL/6 mice (Charles River) or 8-10 week old CD-1 (Harlan) mice (Charles River) according to guidelines established by an institutional animal care committee (ACC) and the Canadian Council on Animal Care (CCAC). Varying doses of mRNA-lipid nanoparticle are systemically administered by tail vein injection and animals euthanized at a specific time point (e.g., 4 hours) post-administration. Liver and spleen are collected in pre-weighed tubes, weights determined, immediately snap frozen in liquid nitrogen and stored at −80° C. until processing for analysis.
For liver, approximately 50 mg is dissected for analyses in a 2 mL FastPrep tubes (MP Biomedicals, Solon OH). ¼″ ceramic sphere (MP Biomedicals) is added to each tube and 500 μL of Glo Lysis Buffer—GLB (Promega, Madison WI) equilibrated to room temperature is added to liver tissue. Liver tissues are homogenized with the FastPrep24 instrument (MP Biomedicals) at 2×6.0 m/s for 15 seconds. Homogenate is incubated at room temperature for 5 minutes prior to a 1:4 dilution in GLB and assessed using SteadyGlo Luciferase assay system (Promega). Specifically, 50 μL of diluted tissue homogenate is reacted with 50 μL of SteadyGlo substrate, shaken for 10 seconds followed by 5 minute incubation and then quantitated using a CentroXS^3 LB 960 luminometer (Berthold Technologies, Germany). The amount of protein assayed is determined by using the BCA protein assay kit (Pierce, Rockford IL). Relative luminescence units (RLU) are then normalized to total ug protein assayed. To convert RLU to ng luciferase a standard curve is generated with QuantiLum Recombinant Luciferase (Promega). […]

The nature of data set [2]: Determination of pKa of formulated lipids (TNS fluorescence assay in lipid nanoparticles). The class given is physicochemical. The procedure: As described elsewhere, the pKa of formulated cationic lipids is correlated with the effectiveness of LNPs for delivery of nucleic acids (see Jayaraman et al, Angewandte Chemie, International Edition (2012), 51(34), 8529-8533; Semple et al, Nature Biotechnology 28, 172-176 (2010)). The preferred range of pKa is ˜5 to ˜7. […] Lipid nanoparticles comprising cationic lipid/DSPC/cholesterol/PEG-lipid (50/10/38.5/1.5 mol %) in PBS at a concentration of 0.4 mM total lipid are prepared using the in-line process as described in Example 1. TNS is prepared as a 100 μM stock solution in distilled water. Vesicles are diluted to 24 μM lipid in 2 mL of buffered solutions containing, 10 mM HEPES, 10 mM MES, 10 mM ammonium acetate, 130 mM NaCl, where the pH ranged from 2.5 to 11. An aliquot of the TNS solution is added to give a final concentration of 1 μM and following vortex mixing fluorescence intensity is measured at room temperature in a SLM Aminco Series 2 Luminescence Spectrophotometer using excitation and emission wavelengths of 321 nm and 445 nm. A sigmoidal best fit analysis is applied to the fluorescence data and the pKa was measured as the pH giving rise to half-maximal fluorescence intensity.

Setting [3] is: cationic lipid formulated in LNP (cationic lipid/DSPC/cholesterol/PEG-lipid 50/10/38.5/1.5 mol %), TNS fluorescence, pH giving half-maximal fluorescence, Table 2.
Setting [4] is: formulated cationic lipid in LNP, TNS assay, Table 4.

`CCCCCCCCC(CCCCCC)CN(CC(CCCCCC)CCCCCCCC)C(=O)CCCCN(C)C` (stereo not shown) [Compound I-1]: the “Liver Luc @ 0.5 mg/kg (ng luc/g liver)” value in data set [1] was found to be 206 ± 141 ng luc/g liver. For the same molecule, the pKa (commonly the pH at which an ionisable group is half protonated) in data set [2] (setting [3]) stood at 6.68.
For the molecule `CCCCCCCCC(CCCCCC)CN(CC(CCCCCC)CCCCCCCC)C(=O)CCCCCN(C)C` (stereo not shown) [Compound I-2], the pKa in data set [2] (setting [3]) is 7.42.
For `CCCCCCCCC(CCCCCC)CN(CC(CCCCCC)CCCCCCCC)C(=O)CCCCN(CCO)CCO` (stereo not shown) [Compound I-3], in data set [2] (setting [3]), the pKa turned out to be 6.49.
`CCCCCCCCC(CCCCCC)CN(CC(CCCCCC)CCCCCCCC)C(=O)CCCCNC(C)C` (stereo not shown) [Compound I-4] showed a pKa in data set [2] (setting [3]) of 8.15.
For the molecule `CCCCCCCCC(CCCCCC)CN(CC(CCCCCC)CCCCCCCC)C(=O)CCN(C)C` (stereo not shown) [Compound I-5], the “Liver Luc @ 0.5 mg/kg (ng luc/g liver)” value in data set [1] worked out at 1417 ± 390 ng luc/g liver. Besides, in data set [2] (setting [3]), the pKa was 6.25.
Take `CCCCCCCCC(CCCCCC)CN(CC(CCCCCC)CCCCCCCC)C(=O)CCCCCCCCN(C)C` (stereo not shown) [Compound I-6]: in data set [2] (setting [3]), the pKa was 7.15.
Consider `CCCCCCCCC(CCCCCC)CN(CC(CCCCCC)CCCCCCCC)C(=O)CCCCCCCN(C)C` (stereo not shown) [Compound I-7], for which, in data set [2] (setting [3]), the pKa was determined as 7.23. This pKa and that of the molecule before are within 0.2 log units of each other.
`CCCCCCCCC(CCCCCC)CN(CCCCCCCCCN(C)C)CC(CCCCCC)CCCCCCCC` (stereo not shown) [Compound I-8]: the “Liver Luc @ 0.5 mg/kg (ng luc/g liver)” value in data set [1] amounted to 1761 ± 598 ng luc/g liver. Moreover, in data set [2] (setting [4]), the pKa came to 5.96.
Take `CCCCCCCCC(CCCCCC)CN(CCCCCCCCN(C)C)CC(CCCCCC)CCCCCCCC` (stereo not shown) [Compound I-9]: in data set [1], the “Liver Luc @ 0.5 mg/kg (ng luc/g liver)” value was 341 ± 126 ng luc/g liver. The molecule also came in with a pKa in data set [2] (setting [4]) of 5.85.

Source of the values: patent US12583816B2, “Lipids for lipid nanoparticle delivery of active agents” (ACUITAS THERAPEUTICS, INC., priority 2018, dated 2026).
